{"source": "patent US7544377B2", "about": "“Chewable compositions with fast release magnolia bark extract” (GIC Innovations Company, priority 2005, dated 2009)", "key": {"[1]": {"tested_on": "bacteria from freshly-collected simulated whole saliva (biofilm)", "test": "Mixed culture saliva biofilm on saliva-coated hydroxyapatite discs, timed exposure to actives", "format": "cell-based", "details": "for % OD reduction (600 nm): Table 8", "description": "Although useful to show the comparative effect of Magnolia Bark Extract on biofilm formation and MIC growth, the foregoing test procedure may not effectively mimic the in vivo exposure of an oral care product to a developing plaque biofilm. In an in vivo situation, the active could be exposed to the plaque for a defined period of time at a set frequency (for example, for 5 minutes, three times a day). Therefore, a series of comparative experiments were conducted to mimic the in vivo use of potential active ingredients. To perform the tests the saliva compositions listed below in Tables 2 and 3 were prepared.\nA mixed culture system that utilizes the bacteria from freshly-collected simulated whole saliva was used. Saliva cell pellets were used to inoculate saliva-coated hydroxyapatite (S-HA) discs. The discs were placed in 24-well cell culture plates and incubated for up to 3 days. Biofilms were exposed to actives on days 2 and 3 (starting at 18 hours), and quantified on day 4. The number of bacteria was determined by spectrophotometric absorbance or optical density (OD) at 600 nm. The five phases of the experiment were: pellicle formation; bacterial attachment; biofilm growth; exposure to actives; and bacterial enumeration.\nTo form the pellicles, HA Discs were ultrasonically washed in deionized water and air-dried, then autoclaved. The discs were placed in a 24-well plate with 1 ml 50% sterile saliva (1 part sterile whole saliva: 1 part saliva buffer, filter sterilize after preparation) for 2 hours on slow agitation at room temperature. The saliva was suctioned and then the discs were transferred to fresh wells for bacterial attachment.\nTo form the biofilms, the bacterial suspension was removed, and the discs were transferred to fresh wells. One ml of supplemented saliva medium was added and the plate was placed in the incubator for overnight incubation and for the duration of the experiment (up to 72 hours).\nA stock solution of 1% Magnolia Bark Extract in 60% ethanol was prepared. Magnolia Bark Extract samples were prepared having a concentration range of 125, 250, 500, and 1000 μg/ml (ppm) in a Phosphate-Buffered-Saline (PBS) solution, where the negative control was PBS and the positive control was CHX having a concentration of 0.12%.\nOne-ml quantities of active ingredients and controls were placed into fresh wells, and the discs were transferred to these wells for 5 minutes. The chlorhexidine control exposure was one minute, two times a day to mimic the standard mouth-rinse procedure. The exposure to active ingredient was carried out at 8:00 AM, 12:00 and 4:00 PM. After the timed exposure, the solution was removed and the discs washed twice with PBS and then transferred to fresh medium. For some experiments, the medium used during the day was TSB (Tryptic Soy Broth) with a 50 μl 40% sterile sucrose solution added to each well (to give a 2% sucrose solution). The medium was not replaced after the mid-day exposure.\nAfter overnight incubation (day 2), discs were exposed to controls and actives. On day 3 the biofilms were again exposed to tests and controls. On day 4 the discs were removed from the medium, the medium pH was measured to obtain an indication of metabolic activity, and the discs were placed into tubes with 2.5 ml PBS, vortexed for 20 sec, and then placed into the ultrasonic bath for another 20 sec. The suspension was transferred into cuvettes and the bacterial cell density determined by OD measurements at 600 nm.\nTo evaluate the effect of Magnolia Bark Extract in combination with the surface active agent, sodium lauryl sulfate, five active ingredient solutions were prepared using the procedures described above. […] Also, the MBE solutions were prepared to have a concentration of 500 ppm. Sodium lauryl sulfate was added to two of the Magnolia Bark Extract solutions to obtain SLS concentrations of 0.05% and 0.1% in the Magnolia Bark Extract solutions. […]"}, "[2]": {"tested_on": "incubated saliva", "test": "MIC of surface active agents and emulsifiers, two-fold broth dilution", "format": "cell-based", "details": "24 hours at 37° C., lowest dilution not turbid", "description": "(§1) To evaluate the germ-kill efficacy and synergist effect when two or more germ-kill actives are combined, testing was performed to determine the ratio of MBE to surface active agent. The germ-kill active and/or surface active agent were dissolved in ethanol or sterile water to give an initial concentration 0.1% to 1%. The solution was diluted with a nutrient broth to give an initial concentration of 0.05% to 0.5%, which was then serially diluted two-fold so that each subsequent dilution contained 50% of the compound concentration of the previous dilution while maintaining a constant level of nutrients for each dilution. These dilutions were inoculated with representative oral microorganisms, or incubated saliva, and incubated for 24 hours at 37° C. For each surface active agent, the lowest dilution that was not turbid was registered as the MIC. The MBC was determined by transferring 10 microliter of liquid from non-turbid tubes to fresh growth media and incubated for 48 hours."}, "[3]": {"tested_on": "S. mutans", "test": "MIC and fractional inhibitory index of MBE / surface active agent combinations", "format": "cell-based, Streptococcus mutans", "details": "24 hours at 37° C.", "description": "as §1\n(1) where an FIC value of less than 1.0 is synergistic, an FIC between 1.0 and 2.0 is additive, and an FIC greater than 2.0 is antagonistic."}}, "data": [{"molecule": "[H]/N=C(\\N/C(=N/[H])NCCCCCCNC(=N)NC(=N)Nc1ccc(Cl)cc1)Nc1ccc(Cl)cc1", "note": "[CHX, chlorhexidine]", "values": [{"measurement": "pH (medium pH, indication of metabolic activity)", "setting": "[1]; Table 5, CHX 0.12%, exposure one minute, two times a day", "value": 8.8}, {"measurement": "% OD reduction (600 nm, compared to PBS control)", "setting": "[1]; Table 6, CHX 0.12%, exposure one minute, two times a day", "value": 84, "unit": "%"}, {"measurement": "pH (medium pH, indication of metabolic activity)", "setting": "[1]; Table 7, CHX 0.1% (1000 ppm)", "value": 8.8}, {"measurement": "% OD reduction (600 nm)", "setting": "[1]; CHX 0.1% (1000 ppm)", "value": 94, "unit": "%"}]}, {"molecule": "N=C(NCCCCCCNC(=N)NC(=N)Nc1ccc(Cl)cc1)NC(=N)Nc1ccc(Cl)cc1.O=C(O)[C@H](O)[C@@H](O)[C@H](O)[C@H](O)CO.O=C(O)[C@H](O)[C@@H](O)[C@H](O)[C@H](O)CO", "note": "[Chlorhexidine gluconate]", "values": [{"measurement": "MIC (ppm)", "setting": "[2]", "value": 2, "unit": "ppm"}, {"measurement": "MIC/ppm", "setting": "[3]", "value": 2, "unit": "ppm"}]}, {"molecule": "CCCCCCCCCCCCOS(=O)(=O)[O-].[Na+]", "note": "[SLS, sodium lauryl sulfate]", "values": [{"measurement": "pH (medium pH, indication of metabolic activity)", "setting": "[1]; Table 7, SLS 1000 ppm", "value": 5.7}, {"measurement": "% OD reduction (600 nm)", "setting": "[1]; SLS 1000 ppm", "value": 61, "unit": "%"}]}, {"molecule": "Sodium Brasslate", "values": [{"measurement": "MIC (ppm)", "setting": "[2]", "value": 500, "unit": "ppm"}]}, {"molecule": "Sodium Stearoyl Lactylate", "values": [{"measurement": "MIC (ppm)", "setting": "[2]", "value": ">3000", "unit": "ppm"}]}, {"molecule": "Sucrose Distearate", "values": [{"measurement": "MIC (ppm)", "setting": "[2]", "value": ">500", "unit": "ppm"}]}, {"molecule": "Sucrose Stearate", "values": [{"measurement": "MIC (ppm)", "setting": "[2]", "value": ">500", "unit": "ppm"}]}]}
